The record followed here is US10442808B2, “Pyrazolo pyrimidine derivatives and their use as MALT1 inhbitors” (NOVARTIS AG, priority 2014, dated 2019).

Structures are written as SMILES.

C-domain of MALT1 (amino acids 329-824), sequence (Q9UDY8 329-824): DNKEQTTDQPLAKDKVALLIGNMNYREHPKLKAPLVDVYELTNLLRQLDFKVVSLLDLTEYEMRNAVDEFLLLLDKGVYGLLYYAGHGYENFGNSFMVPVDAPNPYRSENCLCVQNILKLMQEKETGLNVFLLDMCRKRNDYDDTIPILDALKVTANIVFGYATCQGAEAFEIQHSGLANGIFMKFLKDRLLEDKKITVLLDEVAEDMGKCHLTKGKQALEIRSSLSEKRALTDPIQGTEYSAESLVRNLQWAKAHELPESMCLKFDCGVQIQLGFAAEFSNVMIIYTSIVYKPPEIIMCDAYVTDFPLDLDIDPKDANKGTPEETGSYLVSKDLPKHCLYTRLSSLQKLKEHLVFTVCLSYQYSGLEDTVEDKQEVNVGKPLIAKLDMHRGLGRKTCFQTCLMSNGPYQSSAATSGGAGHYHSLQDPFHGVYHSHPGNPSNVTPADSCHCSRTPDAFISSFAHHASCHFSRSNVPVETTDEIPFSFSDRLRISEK

For one assay, the target named is C-domain of MALT1 (amino acids 329-824) (Homo sapiens (Human), UniProt Q9UDY8). In words: MALT1 biochemical assay (fluorescence lifetime enzyme activity assay). As to conditions: 60 min preincubation, 2.5 nM enzyme, 1 μM substrate. The method, then:
The readout parameter is the increase of fluorescence lifetime over time, proportional to enzyme activity.
The assay employs a short peptide substrate labeled with the single fluorophore PT14 as a fluorescence lifetime probe sensitive to the cleavage state of the substrate (PT14: 6-(9-oxo-9H-acridin-10-yl)-hexanoate, AssayMetrics, UK). […] The assay buffer consists of 200 mM Tris/HCl at pH 7.5, 0.8 M Na citrate, 100 μM EGTA, 100 μM DTT and 0.05% (w/v) CHAPS. […] Test compounds were dissolved in 100% (v/v) DMSO or a mixture containing 90% (v/v) DMSO and 10% (v/v) H2O at a stock concentration of 100 mM. Serial dilutions of test compounds were prepared using either 100% (v/v) DMSO or a mixture containing 90% (v/v) DMSO and 10% (v/v) H2O.
The exponent, p, is the Hill coefficient.
Take `Cn1ccnc1-c1c(NC(=O)Nc2cnc(-n3nccn3)c(Cl)c2)cnc2cc(Cl)nn12` [Example 86, 1-(5-chloro-6-(2H-1,2,3-triazol-2-yl)pyridin-3-yl)-3-(2-chloro-7-(1-methyl-1H-imidazol-2-yl)pyrazolo[1,5-a]pyrimidin-6-yl)urea]: the IC50 turned out to be 0.08 µM.
Compound `O=C(Nc1cnc(-n2nccn2)c(Cl)c1)Nc1cnc2cc(Cl)nn2c1C1COCCN1` (stereo not shown) [Example 123, 1-(5-chloro-6-(2H-1,2,3-triazol-2-yl)pyridin-3-yl)-3-(2-chloro-7-(morpholin-3-yl)pyrazolo[1,5-a]pyrimidin-6-yl)urea] returned an IC50 of 0.041 µM.
Still for that read-out and setting: the same measure for `CC(C)c1c(NC(=O)Nc2ccc(-c3ccnc(N)n3)c(Cl)c2)cnc2cc(Cl)nn12` [Example 23, 1-(4-(2-aminopyrimidin-4-yl)-3-chlorophenyl)-3-(2-chloro-7-isopropylpyrazolo[1,5-a]pyrimidin-6-yl)urea]: 0.004 µM; for `O=C(Nc1cnc(-n2nccn2)c(Cl)c1)Nc1cnc2cc(Cl)nn2c1C1CNCCO1` (stereo not shown) [Example 115, 1-(5-chloro-6-(2H-1,2,3-triazol-2-yl)pyridin-3-yl)-3-(2-chloro-7-(morpholin-2-yl)pyrazolo[1,5-a]pyrimidin-6-yl)urea]: 0.076 µM; for `CC(C)(C)OC(=O)N1CCOC(c2c(NC(=O)Nc3cnc(-n4nccn4)c(Cl)c3)cnc3cc(Cl)nn23)C1` (stereo not shown) [Example 66, tert-butyl 2-(2-chloro-6-(3-(5-chloro-6-(2H-1,2,3-triazol-2-yl)pyridin-3-yl)ureido)pyrazolo[1,5-a]pyrimidin-7-yl)morpholine-4-carboxylate]: 0.018 µM.
In turn, `Cc1cc(CO)nn1-c1ccc(NC(=O)Nc2cnc3cc(Cl)nn3c2C(C)C)cc1Cl` [Example 28, 1-(3-chloro-4-(3-(hydroxymethyl)-5-methyl-1H-pyrazol-1-yl)phenyl)-3-(2-chloro-7-isopropylpyrazolo[1,5-a]pyrimidin-6-yl)urea] returned an IC50 of 0.009 µM.
Still for that read-out and setting: to `C[C@H](O)c1c(NC(=O)Nc2ccnc(C(F)(F)F)c2)cnc2cc(Cl)nn12` [Example 114, (S)-1-(2-chloro-7-(1-hydroxyethyl)pyrazolo[1,5-a]pyrimidin-6-yl)-3-(2-(trifluoromethyl)pyridin-4-yl)urea] belongs 0.007 µM; to `CN[C@@H](C)c1c(NC(=O)Nc2cnc(-n3nccn3)c(Cl)c2)cnc2cc(Cl)nn12` [Example 119, (S)-1-(5-chloro-6-(2H-1,2,3-triazol-2-yl)pyridin-3-yl)-3-(2-chloro-7-(1-(methylamino)ethyl)pyrazolo[1,5-a]pyrimidin-6-yl)urea], 0.012 µM; to `C[C@H](O[C@H]1CCOC1)c1c(NC(=O)Nc2cnc(-n3nccn3)c(Cl)c2)cnc2cc(Cl)nn12` [Example 101, 1-(5-chloro-6-(2H-1,2,3-triazol-2-yl)pyridin-3-yl)-3-(2-chloro-7-((S)-1-(((S)-tetrahydrofuran-3-yl)oxy)ethyl)pyrazolo [1,5-a]pyrimidin-6-yl)urea], 0.005 µM.

For a further assay, the system named is IL2 promoter. Nature of the assay: Human IL2 promoter reporter gene assay (RGA) in Jurkat cells. The assay is classed as cell-based. As to conditions: […], heading: IL2 reporter gene assay IC50, anti-CD28 mAb + PMA stimulation 5.5 h. The method, then:
Human IL2 Promoter Reporter Gene Assay (RGA) in Jurkat Cells
The transfected Jurkat clone K22 290_H23 was propagated in RPMI 1640 supplemented with 10% heat inactivated fetal calf serum, 50 μM 2-mercaptoethanol and 1 mg/ml Geneticin. The cell concentration should not exceed 1×10e6/ml during culturing. The cells should not exceed passage 30. Prior to the assay the cells were washed and prepared to the concentration of 2×10e6 cells/ml.
Compound dilutions were made as 2×-concentrated solutions then diluted ½ by addition to cells. Two hundred and fifty μl of compound dilution and 250 μl of cells were mixed together in wells of a 96-deep well plate. Cells/compounds premix were incubated 30 min at 37° C. and 5% CO2 directly in the deep well plate.
After pre-incubation of cells with compounds, cells were stimulated with anti-CD28 mAb (clone 15E8) at 3 μg/ml+PMA at 1 μg/ml. Both co-stimulants were diluted in culture medium at a 10×-concentrated solution. 10 μl of co-stimulants were pipetted into the white 96-well plates and 100 μl of cell/compound mix was immediately added in duplicates. The cells were stimulated for 5.5 h at 37° C. and 5% CO2.
After cell stimulation, 50 μl of BriteLitePlus reagent (Perkin Elmer) was added to each well and the bioluminescence was measured with a Wallac EnVision reader (Perkin Elmer).
For `Cn1ccnc1-c1c(NC(=O)Nc2cnc(-n3nccn3)c(Cl)c2)cnc2cc(Cl)nn12` [Example 86, 1-(5-chloro-6-(2H-1,2,3-triazol-2-yl)pyridin-3-yl)-3-(2-chloro-7-(1-methyl-1H-imidazol-2-yl)pyrazolo[1,5-a]pyrimidin-6-yl)urea], the concentration for half-maximal inhibition (IC50) was 0.044 µM.
The same measure, in the same setting: to `CC(C)c1c(NC(=O)Nc2ccc(-c3ccnc(N)n3)c(Cl)c2)cnc2cc(Cl)nn12` [Example 23, 1-(4-(2-aminopyrimidin-4-yl)-3-chlorophenyl)-3-(2-chloro-7-isopropylpyrazolo[1,5-a]pyrimidin-6-yl)urea] belongs 0.526 µM; to `CC(C)(C)OC(=O)N1CCOC(c2c(NC(=O)Nc3cnc(-n4nccn4)c(Cl)c3)cnc3cc(Cl)nn23)C1` (stereo not shown) [Example 66, tert-butyl 2-(2-chloro-6-(3-(5-chloro-6-(2H-1,2,3-triazol-2-yl)pyridin-3-yl)ureido)pyrazolo[1,5-a]pyrimidin-7-yl)morpholine-4-carboxylate], 0.028 µM.
For `CO[C@@H](C)c1c(NC(=O)Nc2cc(Cl)cnc2OCCN(C)C)cnc2cc(Cl)nn12` [Example 99, (S)-1-(5-chloro-2-(2-(dimethylamino)ethoxy)pyridin-3-yl)-3-(2-chloro-7-(1-methoxyethyl)pyrazolo[1,5-a]pyrimidin-6-yl)urea], the IC50 was determined as 0.054 µM.
The same measure, in the same setting: to `CN1CCOCC1Cc1c(NC(=O)Nc2cnc(-n3nccn3)c(Cl)c2)cnc2cc(Cl)nn12` (stereo not shown) [Example 83, 1-(5-chloro-6-(2H-1,2,3-triazol-2-yl)pyridin-3-yl)-3-(2-chloro-7-((4-methylmorpholin-3-yl)methyl)pyrazolo[1,5-a]pyrimidin-6-yl)urea] belongs 0.013 µM.
The same measure, in the same setting: the same measure for `CO[C@H](C)CO[C@@H](C)c1c(NC(=O)Nc2cnc(-n3nccn3)c(Cl)c2)cnc2cc(Cl)nn12` [Example 85, 1-(5-chloro-6-(2H-1,2,3-triazol-2-yl)pyridin-3-yl)-3-(2-chloro-7-((S)-1-((R)-2 methoxypropoxy)ethyl)pyrazolo[1,5-a]pyrimidin-6-yl)urea]: 0.068 µM; for `CC(C)OCc1c(NC(=O)Nc2cnc(-n3nccn3)c(Cl)c2)cnc2cc(Cl)nn12` [Example 61, 1-(5-chloro-6-(2H-1,2,3-triazol-2-yl)pyridin-3-yl)-3-(2-chloro-7-(isopropoxymethyl)pyrazolo[1,5-a]pyrimidin-6-yl)urea]: 0.014 µM.
Take `C[C@@H](OCc1ccccc1)c1c(NC(=O)Nc2cnc(-n3nccn3)c(C(F)(F)F)c2)cnc2cc(Cl)nn12` [Example 65, (R)-1-(6-(2H-1,2,3-triazol-2-yl)-5-(trifluoromethyl)pyridin-3-yl)-3-(7-(1-(benzyloxy)ethyl)-2-chloropyrazolo[1,5-a]pyrimidin-6-yl)urea]: the IC50 was determined as 0.072 µM.
Still for that read-out and setting: to `COC[C@H](C)c1c(NC(=O)Nc2cnc(-n3nccn3)c(C(F)(F)F)c2)cnc2cc(Cl)nn12` [Example 111, (R)-1-(6-(2H-1,2,3-triazol-2-yl)-5-(trifluoromethyl)pyridin-3-yl)-3-(2-chloro-7-(1-methoxypropan-2-yl)pyrazolo[1,5-a]pyrimidin-6-yl)urea] belongs 0.138 µM.
Same read-out and setting: the same measure for `CO[C@@H](C)c1c(NC(=O)Nc2cnc(OC(F)F)c(Cl)c2)cnc2cc(Cl)nn12` [Example 93, (S)-1-(5-chloro-6-(difluoromethoxy)pyridin-3-yl)-3-(2-chloro-7-(1-methoxyethyl)pyrazolo[1,5-a]pyrimidin-6-yl)urea]: 0.059 µM; for `COCC1(c2c(NC(=O)Nc3cnc(-n4nccn4)c(Cl)c3)cnc3cc(C)nn23)CC1` [Example 78, 1-(5-chloro-6-(2H-1,2,3-triazol-2-yl)pyridin-3-yl)-3-(7-(1-(methoxymethyl)cyclopropyl)-2-methylpyrazolo[1,5-a]pyrimidin-6-yl)urea]: 0.927 µM.
For `CO[C@@H](C)c1c(NC(=O)Nc2ccnc(C(F)(F)F)c2)cnc2cc(C)nn12` [Example 6, (S)-1-(7-(1-methoxyethyl)-2-methylpyrazolo[1,5-a]pyrimidin-6-yl)-3-(2-(trifluoromethyl)pyridin-4-yl)urea], the IC50 turned out to be 0.03 µM.
The same measure, in the same setting: to `CC1(c2c(NC(=O)Nc3cnc(-n4nccn4)c(Cl)c3)cnc3cc(Cl)nn23)CC1` [Example 16, 1-(5-chloro-6-(2H-1,2,3-triazol-2-yl)pyridin-3-yl)-3-(2-chloro-7-(1-methylcyclopropyl)pyrazolo[1,5-a]pyrimidin-6-yl)urea] belongs 0.207 µM.
